SMILES strings stand for the structures.

By inhibition is commonly meant the change of the read-out against control, counted positive when it falls.

For the first test, the target named is T1, recombinant human mPGES-1 (Homo sapiens, UniProt O14684).
T1 construct: made in house; host or cells: Rosetta E. coli (microsomal/membrane fraction)
T1 sequence (O14684 1-152): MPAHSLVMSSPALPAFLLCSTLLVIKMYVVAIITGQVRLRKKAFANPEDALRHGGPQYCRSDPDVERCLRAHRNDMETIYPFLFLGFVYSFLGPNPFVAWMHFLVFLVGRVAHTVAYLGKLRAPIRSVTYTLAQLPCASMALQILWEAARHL
The test can be described thus: mPGES-1 inhibition test (microsomes, PGH2 substrate, HTRF detection of PGE2). The class given is biochemical. The note with it: inhibition of mPGES-1 at 1 μM (marked in cell). In short, it runs like this:
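PGE2 formed from PGH2 in one minute by E. coli-expressed microsomal enzyme (pH 7.4, 2.5 mM GSH) was measured by competitive HTRF against a synthetic PGE2 standard curve. Compounds were preincubated 25 min at room temperature.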
A general note: Time-resolved FRET reads energy transfer from a long-lived donor to a nearby acceptor.
Turning to `COc1cc2c(cc1C(=O)Nc1ccc(Br)cc1)nc(Nc1cc(F)ccc1C(F)(F)F)n2C` [Example 642, 2-(5-Fluoro-2-trifluoromethyl-phenylamino)-N-(4-bromphenyl)-6-methoxy-1-methyl-1H-benzimidazol-5-carboxamide], the inhibition at 1 µM came out at 100%.

The same test, now with this note: inhibition of mPGES-1 at 10 μM.
Take `Cc1cccc(Cl)c1Nc1nc2cc(C(=O)Nc3ccccc3)ccc2[nH]1` [Example 12, 2-(2-Chloro-6-methyl-phenylamino)-1H-benzimidazole-5-carboxylic acid-phenylamide]: the inhibition at 10 µM was determined as 99%.

As to `Cc1cccc(C)c1Nc1nc2cc(C(=O)Nc3ccccc3)ccc2[nH]1` [Example 13, 2-(2,6-Dimethyl-phenylamino)-1H-benzimidazole-5-carboxylic acid-phenylamide], the inhibition at 10 µM amounted to 100%.

Turning to `O=C(Nc1ccc(Br)cc1)c1cc2nc(Nc3c(Cl)cccc3Cl)[nH]c2cc1Cl` [Example 53, 2-(2,6-Dichloro-phenylamino)-6-chloro-1H-benzimidazole-5-carboxylic acid (4-bromo-phenyl)-amide], the inhibition at 10 µM was 100%.

Regarding `Cc1nc(NC(=O)c2ccc3[nH]c(Nc4c(Cl)cccc4Cl)nc3c2)cc2c1CCCC2` [Example 132, 2-(2,6-Dichloro-phenylamino)-1H-benzimidazole-5-carboxylic acid (1-methyl-5,6,7,8-tetrahydro-isoquinolin-3-yl)-amide], the inhibition at 10 µM turned out to be 97%.

For the compound `Cc1nc(NC(=O)c2cc3nc(Nc4c(Cl)cccc4Cl)[nH]c3cc2F)cc2c1CCCC2` [Example 138, 2-(2,6-Dichloro-phenylamino)-6-fluoro-1H-benzimidazole-5-carboxylic acid (1-methyl-5,6,7,8-tetrahydro-isoquinolin-3-yl)-amide], the inhibition at 10 µM was found to be 100%.

On to `CNCCn1c(Nc2c(Cl)cccc2Cl)nc2cc(C(=O)Nc3cc(Cl)ccn3)ccc21` [Example 212, 2-(2,6-Dichloro-phenylamino)-1-(2-methylamino-ethyl)-1H-benzimidazole-5-carboxylic acid (4-chloro-pyridin-2-yl)-amide (trifluoroacetate)], for which the inhibition at 10 µM amounted to 100%.

For `O=C(Nc1c(Cl)cc(Cl)cc1Cl)c1ccc2[nH]c(Nc3c(Cl)cccc3Cl)nc2c1` [Example 313, 2-(2,6-Dichloro-phenylamino)-1H-benzimidazole-5-carboxylic acid (2,4,6-trichloro-phenyl)-amide], the inhibition at 10 µM was 99%.

`Cn1c(Nc2c(Cl)cc(F)cc2Cl)nc2cc(C(=O)NC3CCC(C)(C)CC3)ccc21` [Example 420, 2-(2,6-Dichloro-4-fluorophenylamino)-N-(4,4-dimethylcyclohexyl)-1-methyl-1H-benzimidazole-5-carboxamide]: the inhibition at 10 µM amounted to 100%.

With `Cn1c(Nc2c(F)cccc2F)nc2cc(C(=O)NC3CCC(C)(C)CC3)ccc21` [Example 172, 2-(2,6-Difluoro-phenylamino)-1-methyl-1H-benzimidazole-5-carboxylic acid (4,4-dimethyl-cyclohexyl)-amide], the inhibition at 10 µM is 97%.

`O=C(Nc1cc(Cl)c(Cl)c(Cl)c1)c1ccc2[nH]c(Nc3c(Cl)cccc3Cl)nc2c1` [Example 287, 2-(2,6-Dichloro-phenylamino)-1H-benzimidazole-5-carboxylic acid (3,4,5-trichloro-phenyl)-amide]: the inhibition at 10 µM was 92%.

For the compound `O=C(Nc1ccc(Br)cc1)c1ccc2[nH]c(Nc3cccc(Cl)c3C(F)(F)F)nc2c1` [Example 333, 2-(3-Chloro-2-trifluoromethyl-phenylamino)-1H-benzimidazole-5-carboxylic acid (4-bromo-phenyl)-amide], the inhibition at 10 µM was found to be 94%.

For the compound `Cc1cc(C(=O)Nc2ccc(Cl)c(F)c2)cc2nc(Nc3c(Cl)cccc3Cl)[nH]c12` [Example 52, 2-(2,6-Dichloro-phenylamino)-7-methyl-1H-benzimidazole-5-carboxylic acid (4-chloro-3-fluoro-phenyl)-amide], the inhibition at 10 µM was determined as 100%.

The values are drawn from US8916599B2, “1H-benz imidazole-5-carboxamides as anti-inflammatory agents” (Orexo AB, priority 2008, dated 2014).
